Experiments:
Format in all cases: physicochemical
[1] = Powder bulk density analysis (ring shear tester); details: for Initial Density: initial bulk density, corresponds to x = 0 in FIG. 21, mass of powder normalized by volume of the cell; for Density results (Table 21 and FIG. 21) compared with the product of Route D (E12): initial density and density at varying stresses, higher density = more ideal packing
From the text: Solid forms prepared according to the procedures described for Routes D, E, and F (Examples 12-14, respectively) were subjected to powder bulk density analysis in accordance with the following procedure.
A ring shear tester (RST-XS.s, Dietmar Schulze, Wolfenbüttel, Germany) with RST CONTROL 95 software was used for the bulk density analysis. For this analysis, Low-Stress Shear Cell, XS-Lr0, bottom ring was over-filled with small portions of powder using a spatula. The excess powder was removed by gently scraping off the powder with the spatula until the powder was flush with the top of the ring. The bottom ring was weighed and the total mass was entered. When prompted the shear cell lid was attached to the loading rod and the filled bottom ring placed on the driving axle for the test. The initial bulk density was calculated by the control software from the mass of powder normalized by the volume of the cell. During the shear test, 5 preshear normal stresses, 0.1, 0.2, 0.3, 0.4, and 0.5 kPa were applied to the powder before it was sheared until steady state was achieved. At each preshear normal stress, the powder was sheared to failure at 5 increasing normal stresses between 0 and the preshear normal stress to generate corresponding shear stresses at failure. A yield locus was generated by applying a linear regression to the shear stresses as a function of the normal stress plot. The Major Principal Stress (x-axis) was the maximum value obtained when a Mohr's circle was drawn through the preshear normal stress and tangential to the yield locus. The volume of powder at each steady state was determined from the change in height of the lid and, together with the initial powder mass, used to calculate the powder bulk densities (y-axis).

[2] = Powder flow function analysis (ring shear tester); details: FIG. 22; lower flow function curve = good flow
From the text: Solid forms prepared according to the procedures described for Routes D, E, and F (Examples 12-14, respectively) were subjected to powder flow function analysis in accordance with the following procedure:
A ring shear tester (RST-XS.s, Dietmar Schulze, Wolfenbüttel, Germany) with RST CONTROL 95 software was used for the flow function analysis. For this analysis, Low-Stress Shear Cell, XS-Lr0, bottom ring was over-filled with small portions of powder using a spatula. The excess powder was removed by gently scraping off the powder with the spatula until the powder was flush with the top of the ring. The bottom ring was weighed and the total mass was entered. When prompted the shear cell lid was attached to the loading rod and the filled bottom ring placed on the driving axle for the test. To obtain a flow function, 5 yield loci were determined using the “Stress Walk” function in the control software. During the shear test, 5 preshear normal stresses, 0.1, 0.2, 0.3, 0.4, and 0.5 kPa were applied to the powder to generate the 5 yield loci. At each preshear normal stress, the powder was sheared to failure at 5 equally-spaced normal stresses between 0 and the preshear normal stress to generate corresponding shear stresses at failure. Each yield locus was derived by applying a linear regression to the shear stresses as a function of the normal stress plot. […]

[3] = Relative stability of crystalline forms; details: comparison among crystalline forms identified
[4] = Powder time consolidation behavior analysis (ring shear tester); details: FIG. 23; 0 hrs vs 12 hrs storage, x=250 Pa
From the text: Solid forms prepared according to the procedures described for Routes E and F (Examples 13 and 14, respectively) were subjected to powder time consolidation behavior analysis in accordance with the following procedure.
A ring shear tester (RST-XS.s, Dietmar Schulze, Wolfenbüttel, Germany) with RST CONTROL 95 software was used for the flow function analysis. For this analysis, Low-Stress Shear Cell, XS-Lr0, bottom ring was over-filled with small portions of powder using a spatula. The excess powder was removed by gently scraping off the powder with the spatula until the powder was flush with the top of the ring. The bottom ring was weighed and the total mass was entered. When prompted the shear cell lid was attached to the loading rod and the filled bottom ring placed on the driving axle for the test. For the time consolidation test, a yield locus was first obtained by applying a 0.1 kPa preshear stress and 5 normal stresses equally spaced between 0 and the preshear stress to the powder and determining the corresponding shear stresses. A fresh powder sample was again prepared and conditioned to a similar steady state as that for the just obtained yield locus. […] The change in the shear stress obtained after this new conditioned state was determined and that represents the time consolidation behavior of the powder. […]

| SMILES | Initial Density [1] | Density results (Table 21 and FIG. 21) compared with the product of Route D (E12) [1] | Powder flow (flow function curve: unconfined yield strength vs major principal stress) compared with a product of Route D (E12) [2] | Stability of the crystalline form relative to other forms [3] | Time consolidation effect (unconfined yield strength gained on storage) [4] |
| --- | --- | --- | --- | --- | --- |
| Cl.NC(=O)[C@@H]1CC[C@H](c2ccc(OCc3ccccc3F)cc2)N1 [Example E13, (5R)-5-(4-{[(2-Fluorophenyl)methyl]oxy}phenyl)-L-prolinamide Hydrochloride (Anhydrous; Route E)] | 0.565 g/mL | far superior | better |  |  |
| Cl.NC(=O)[C@@H]1CC[C@H](c2ccc(OCc3ccccc3F)cc2)N1 [Form 1, (5R)-5-(4-{[(2-Fluorophenyl)methyl]oxy}phenyl)-L-prolinamide Hydrochloride Form 1 (Anhydrous A)] |  |  |  | most stable crystalline form identified to date |  |
| Cl.NC(=O)[C@@H]1CC[C@H](c2ccc(OCc3ccccc3F)cc2)N1 [Example E14, (5R)-5-(4-{[(2-Fluorophenyl)methyl]oxy}phenyl)-L-prolinamide Hydrochloride (Anhydrous; Route F)] | 0.512 g/mL | far superior | better |  | does not exhibit as much of a consolidation effect as the product of Route E (E13) |
| Cl.NC(=O)[C@@H]1CC[C@H](c2ccc(OCc3ccccc3F)cc2)N1 [Form 9, (5R)-5-(4-{[(2-Fluorophenyl)methyl]oxy}phenyl)-L-prolinamide Hydrochloride Form 9 (Anhydrous B)] |  |  |  | less stable than Anhydrous Form A (Form 1) |  |
| Cl.NC(=O)[C@@H]1CC[C@H](c2ccc(OCc3ccccc3F)cc2)N1 [Example E12, (5R)-5-(4-{[(2-Fluorophenyl)methyl]oxy}phenyl)-L-prolinamide Hydrochloride (Anhydrous; Route D)] | 0.254 g/mL |  |  |  |  |
| Cl.NC(=O)[C@@H]1CC[C@H](c2ccc(OCc3ccccc3F)cc2)N1 [Form 10, (5R)-5-(4-{[(2-Fluorophenyl)methyl]oxy}phenyl)-L-prolinamide Hydrochloride Form 10 (Anhydrous C)] |  |  |  | less stable than Anhydrous Form A (Form 1) |  |

— patent publication US20200062705A1, “NOVEL CRYSTALLINE FORMS” (Biogen MA Inc., priority 2017, published 2020)
